From PubChem BioAssay (NCI)
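Values below derive from 48-hour exposures of cells grown in 96-well plates, with endpoints linearly interpolated between the two concentrations bracketing the appropriate inhibition level. At the GI50, growth is halved. At the TGI there is no net growth.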

Experiments:
Assay in all cases: growth of human tumour cells (NCI), 48 h
786-0 renal = test system: 786-0 renal
A498 renal = test system: A498 renal
A549 NSCLC = test system: A549 NSCLC
ACHN renal = test system: ACHN renal
BT-549 breast = test system: BT-549 breast
CAKI-1 renal = test system: CAKI-1 renal
CCRF-CEM leukemia = test system: CCRF-CEM leukemia
COLO 205 colon = test system: COLO 205 colon
DU-145 prostate = test system: DU-145 prostate
EKVX NSCLC = test system: EKVX NSCLC
HCC-2998 colon = test system: HCC-2998 colon
HCT-116 colon = test system: HCT-116 colon
HCT-15 colon = test system: HCT-15 colon
HL-60(TB) leukemia = test system: HL-60(TB) leukemia
HOP-62 NSCLC = test system: HOP-62 NSCLC
HOP-92 NSCLC = test system: HOP-92 NSCLC
HS 578T breast = test system: HS 578T breast
HT29 colon = test system: HT29 colon
IGROV1 ovarian = test system: IGROV1 ovarian
K-562 leukemia = test system: K-562 leukemia
KM12 colon = test system: KM12 colon
LOX IMVI melanoma = test system: LOX IMVI melanoma
M14 melanoma = test system: M14 melanoma
MALME-3M melanoma = test system: MALME-3M melanoma
MCF7 breast = test system: MCF7 breast
MDA-MB-231 breast = test system: MDA-MB-231 breast
MDA-MB-435 = test system: MDA-MB-435
MOLT-4 leukemia = test system: MOLT-4 leukemia
NCI-H226 lung = test system: NCI-H226 lung
NCI-H23 lung = test system: NCI-H23 lung
NCI-H460 lung = test system: NCI-H460 lung
NCI-H522 lung = test system: NCI-H522 lung
NCI/ADR-RES ovarian = test system: NCI/ADR-RES ovarian
OVCAR-3 ovarian = test system: OVCAR-3 ovarian
OVCAR-4 ovarian = test system: OVCAR-4 ovarian
OVCAR-5 ovarian = test system: OVCAR-5 ovarian
OVCAR-8 ovarian = test system: OVCAR-8 ovarian
PC-3 prostate = test system: PC-3 prostate
RPMI-8226 leukemia = test system: RPMI-8226 leukemia
RXF 393 renal = test system: RXF 393 renal
SF-268 CNS = test system: SF-268 CNS
SF-295 CNS = test system: SF-295 CNS
SF-539 CNS = test system: SF-539 CNS
SK-MEL-2 melanoma = test system: SK-MEL-2 melanoma
SK-MEL-28 melanoma = test system: SK-MEL-28 melanoma
SK-MEL-5 melanoma = test system: SK-MEL-5 melanoma
SK-OV-3 ovarian = test system: SK-OV-3 ovarian
SN12C renal = test system: SN12C renal
SNB-19 CNS = test system: SNB-19 CNS
SNB-75 CNS = test system: SNB-75 CNS
SR leukemia = test system: SR leukemia
SW-620 colon = test system: SW-620 colon
T-47D breast = test system: T-47D breast
TK-10 renal = test system: TK-10 renal
U251 CNS = test system: U251 CNS
UACC-257 melanoma = test system: UACC-257 melanoma
UACC-62 melanoma = test system: UACC-62 melanoma
UO-31 renal = test system: UO-31 renal

Compound: COc1ccc(C(=O)c2cc(OC)c(OC)c(OC)c2)cc1OC(=O)C(Cl)(Cl)Cl
- GI50 (786-0 renal): 587 nM
- TGI (786-0 renal): > 100000 nM
- GI50 (A498 renal): 1970 nM
- TGI (A498 renal): 7180 nM
- GI50 (A549 NSCLC): 154 nM
- TGI (A549 NSCLC): > 100000 nM
- GI50 (ACHN renal): 32.9 nM
- TGI (ACHN renal): > 100000 nM
- GI50 (BT-549 breast): 11.8 nM
- TGI (BT-549 breast): 880 nM
- GI50 (CAKI-1 renal): 140 nM
- TGI (CAKI-1 renal): > 100000 nM
- GI50 (CCRF-CEM leukemia): < 18.3 nM
- TGI (CCRF-CEM leukemia): > 100000 nM
- GI50 (COLO 205 colon): 1310 nM
- TGI (COLO 205 colon): 23200 nM
- GI50 (DU-145 prostate): 28.4 nM
- TGI (DU-145 prostate): > 100000 nM
- GI50 (EKVX NSCLC): 3160 nM
- TGI (EKVX NSCLC): > 100000 nM
- GI50 (HCC-2998 colon): 46.2 nM
- TGI (HCC-2998 colon): > 100000 nM
- GI50 (HCT-116 colon): 28.4 nM
- TGI (HCT-116 colon): > 100000 nM
- GI50 (HCT-15 colon): < 10 nM
- TGI (HCT-15 colon): > 100000 nM
- GI50 (HL-60(TB) leukemia): < 10 nM
- TGI (HL-60(TB) leukemia): < 19.1 nM
- GI50 (HOP-62 NSCLC): 83 nM
- TGI (HOP-62 NSCLC): > 100000 nM
- GI50 (HOP-92 NSCLC): 470 nM
- TGI (HOP-92 NSCLC): > 100000 nM
- GI50 (HS 578T breast): 18 nM
- TGI (HS 578T breast): > 100000 nM
- GI50 (HT29 colon): 2000 nM
- TGI (HT29 colon): > 100000 nM
- GI50 (IGROV1 ovarian): 312 nM
- TGI (IGROV1 ovarian): > 100000 nM
- GI50 (K-562 leukemia): < 10 nM
- TGI (K-562 leukemia): > 100000 nM
- GI50 (KM12 colon): < 10 nM
- TGI (KM12 colon): > 100000 nM
- GI50 (LOX IMVI melanoma): < 13.4 nM
- TGI (LOX IMVI melanoma): > 100000 nM
- GI50 (M14 melanoma): < 10 nM
- TGI (M14 melanoma): > 100000 nM
- TGI (MALME-3M melanoma): > 100000 nM
- GI50 (MCF7 breast): 27.2 nM
- TGI (MCF7 breast): > 100000 nM
- GI50 (MDA-MB-231 breast): 158 nM
- TGI (MDA-MB-231 breast): > 100000 nM
- GI50 (MDA-MB-435): < 10 nM
- GI50 (MOLT-4 leukemia): < 19.9 nM
- TGI (MOLT-4 leukemia): > 50200 nM
- GI50 (NCI-H226 lung): 15400 nM
- TGI (NCI-H226 lung): > 100000 nM
- GI50 (NCI-H23 lung): 62.7 nM
- TGI (NCI-H23 lung): > 100000 nM
- GI50 (NCI-H460 lung): 38.8 nM
- TGI (NCI-H460 lung): > 100000 nM
- GI50 (NCI-H522 lung): 16.9 nM
- TGI (NCI-H522 lung): > 100000 nM
- GI50 (NCI/ADR-RES ovarian): < 11 nM
- TGI (NCI/ADR-RES ovarian): > 100000 nM
- GI50 (OVCAR-3 ovarian): 27.8 nM
- TGI (OVCAR-3 ovarian): > 100000 nM
- GI50 (OVCAR-4 ovarian): 122 nM
- TGI (OVCAR-4 ovarian): > 100000 nM
- GI50 (OVCAR-5 ovarian): 4490 nM
- TGI (OVCAR-5 ovarian): > 100000 nM
- GI50 (OVCAR-8 ovarian): 44.1 nM
- TGI (OVCAR-8 ovarian): > 100000 nM
- GI50 (PC-3 prostate): < 10.6 nM
- TGI (PC-3 prostate): > 100000 nM
- GI50 (RPMI-8226 leukemia): < 20.2 nM
- TGI (RPMI-8226 leukemia): 27200 nM
- GI50 (RXF 393 renal): 33.7 nM
- TGI (RXF 393 renal): > 100000 nM
- GI50 (SF-268 CNS): 73.6 nM
- TGI (SF-268 CNS): > 100000 nM
- GI50 (SF-295 CNS): 79.2 nM
- TGI (SF-295 CNS): > 100000 nM
- GI50 (SF-539 CNS): 13.4 nM
- TGI (SF-539 CNS): 56 nM
- GI50 (SK-MEL-2 melanoma): 85300 nM
- TGI (SK-MEL-2 melanoma): > 100000 nM
- GI50 (SK-MEL-28 melanoma): 25100 nM
- TGI (SK-MEL-28 melanoma): > 100000 nM
- GI50 (SK-MEL-5 melanoma): 32.5 nM
- TGI (SK-MEL-5 melanoma): 329 nM
- GI50 (SK-OV-3 ovarian): 76.2 nM
- TGI (SK-OV-3 ovarian): > 100000 nM
- GI50 (SN12C renal): 57.9 nM
- TGI (SN12C renal): > 100000 nM
- GI50 (SNB-19 CNS): 45.2 nM
- TGI (SNB-19 CNS): > 100000 nM
- GI50 (SNB-75 CNS): < 10 nM
- TGI (SNB-75 CNS): > 100000 nM
- GI50 (SR leukemia): < 10 nM
- TGI (SR leukemia): > 100000 nM
- GI50 (SW-620 colon): < 10 nM
- TGI (SW-620 colon): > 100000 nM
- GI50 (T-47D breast): 2400 nM
- TGI (T-47D breast): > 100000 nM
- GI50 (TK-10 renal): 34100 nM
- TGI (TK-10 renal): > 100000 nM
- GI50 (U251 CNS): 38.4 nM
- TGI (U251 CNS): > 100000 nM
- GI50 (UACC-257 melanoma): > 100000 nM
- TGI (UACC-257 melanoma): > 100000 nM
- GI50 (UACC-62 melanoma): 628 nM
- TGI (UACC-62 melanoma): > 100000 nM
- GI50 (UO-31 renal): 540 nM
- TGI (UO-31 renal): > 100000 nM
